By LD50 is commonly meant the dose expected to kill half of the subjects tested. Higher therefore signals lower toxicity.

For data set [1], the system named is Sarcoma 180 solid tumor. In words: Therapeutical effect against Sarcoma 180 solid tumor. The data set is classed as in vivo, ddY male mice. To be noted: 10 days after implantation. As for the experimental part: Six ddY male mice each weighing about 20 g were used for each group, and 5×10^6 Sarcoma 180 solid tumor cells were implanted subcutaneously into the mice at the axilla. Twenty-four hours after the implantation, 0.2 ml of a phosphate buffer saline (hereinafter referred to as PBS) containing the DC-89 compound in the concentration shown in Table 3 was intraperitoneally administered once.
The composition of PBS was 0.8 g/dl NaCl, 0.02 g/dl KCl, […] Na2 HPO4 and 0.02 g/dl KH2 PO4 (pH 7.2).
For comparison, 0.2 ml of PBS containing mitomycin C was intraperitoneally administered 24 hours after implantation of the tumor cells.
Ten days after the implantation, T/C [T: average tumor volume (mm^3) of the test groups, C: average tumor volume (mm^3) of the control group which received an intraperitoneal administration of 0.2 ml of PBS] was determined.

Data set [2] relates to Bacillus subtilis No. 10707. In words: Antibacterial activity, agar dilution method (MIC). In kind it is cell-based. Conditions: Bacillus subtilis No. 10707, agar dilution, pH 7; read-out: Minimum inhibitory concentration (MIC). As for the experimental part: (§1) The antibacterial activity was determined by the agar dilution method using a medium (pH 7) prepared by dissolving 3 g of Bacto-tryptone (Difco Laboratories), 3 g of meat extract, 1 g of yeast extract, 1 g of glucose and 16 g of agar in 1 liter of water.
For orientation: Agar dilution tests growth on a series of plates holding different concentrations.

Data set [3] relates to Staphylococcus aureus ATCC 6538P. In words: Antibacterial activity, agar dilution method (MIC). In kind it is cell-based. To be noted: ATCC6538P, pH 7, read-out: Minimum inhibitory concentration (MIC). As for the experimental part: as §1
In data set [4] the test system is Klebsiella pneumoniae ATCC 10031. The experiment in a line: Antibacterial activity, agar dilution method (MIC). In kind it is cell-based. Conditions: ATCC10031; Klebsiella pneumoniae ATCC 10031, agar dilution, pH 7; read-out: Minimum inhibitory concentration (MIC). As for the experimental part:
as §1

The subject of data set [5] is Escherichia coli ATCC 26. In words: Antibacterial activity, agar dilution method (MIC). To be noted: ATCC26; Escherichia coli ATCC 26, agar dilution, pH 7; read-out: Minimum inhibitory concentration (MIC). The data set is classed as cell-based. As for the experimental part:
as §1

The subject of data set [6] is Salmonella typhi ATCC 9992. The experiment in a line: Antibacterial activity, agar dilution method (MIC). In kind it is cell-based. Conditions: Salmonella enterica; Salmonella typhi ATCC 9992, agar dilution, pH 7; read-out: Minimum inhibitory concentration (MIC). As for the experimental part:
as §1

The test system of data set [7] is lymphocytic leukemia P388. The experiment in a line: Therapeutical effect against lymphocytic leukemia P388. In kind it is in vivo, male CDF1 mice. As for the experimental part: Five male CDF1 mice each weighing about 22 g were used for each group, and 1×10^6 cells of lymphocytic leukemia P388 tumor cells were implanted intraperitoneally into the mice. Twenty-four hours after the implantation, 0.2 ml of PBS containing the DC-89 compound was intraperitoneally administered once. For comparison, 0.2 ml of PBS containing mitomycin C was intraperitoneally administered 24 hours after implantation of the tumor cells. The increased life span (T/C) [T: mean survival time (days) of the test groups, C: mean survival time (days) of the control group which received an intraperitoneal administration of 0.2 ml of PBS] after the implantation is shown in Table 4.

The nature of data set [8]: Acute toxicity (LD50), intraperitoneal, mice. To be noted: mouse, in vivo, ip.
Data set [9] in a line: Solubility. In kind it is physicochemical.
Where [10] appears, read: in methanol, ethanol, ethyl acetate, acetone, chloroform and dimethylsulfoxide.
Setting [11] is: 4 mg/kg, i.p. 24 h after implantation.

Converted amounts (≈) assume the structure as drawn.

For the compound `COC(=O)C1(C)Nc2c(O)cc3c(c2C1=O)C(CCl)CN3C(=O)c1cc2cc(OC)c(OC)c(OC)c2[nH]1` (centres unmarked) [DC-89A2], the “T/C (average tumor volume)” value in data set [1] (3 mg/kg, i.p. once 24 h after implantation) was 0.19. In addition, the MIC is 0.0065 µg/mL (≈ 0.0119 µM) in data set [2]; 0.052 µg/mL (≈ 0.0956 µM) in data set [3]; 0.42 µg/mL (≈ 0.772 µM) in data set [4]; 5.2 µg/mL (≈ 9.56 µM) in [5]; 10.4 µg/mL (≈ 19.1 µM) in [6]. In addition, the “Increased Life Span (T/C) (mean survival time)” value (from here on “Increased Life Span (T/C)”) in [7] (0.125 mg/kg, i.p. once 24 h after implantation) was found to be 1.35. The same compound displayed a 50% lethal dose (LD50) in [8] of roughly 3.83 mg/kg. For the same compound, the Solubility result in data set [9] (setting [10]) was “readily soluble”; in data set [9] (in water and n-hexane), “sparingly soluble”.

Consider `COC(=O)C1(C)Nc2c(O)cc3c(c2C1=O)CC(Br)CN3C(=O)c1cc2cc(OC)c(OC)c(OC)c2[nH]1` (centres unmarked) [DC-89B1], for which the “T/C (average tumor volume)” value in data set [1] (0.5 mg/kg, i.p. once 24 h after implantation) is on record as 0.22. The MIC turned out to be 0.013 µg/mL (≈ 0.0221 µM) in [2]; 0.0008 µg/mL (≈ 0.00136 µM) in data set [3]; 0.026 µg/mL (≈ 0.0442 µM) in [4]; 0.33 µg/mL (≈ 0.561 µM) in data set [5]; 1.3 µg/mL (≈ 2.21 µM) in data set [6]. The “Increased Life Span (T/C)” value in [7] (0.0156 mg/kg, i.p. once 24 h after implantation) is recorded as 1.35. In data set [8], this compound registered an LD50 of roughly 0.37 mg/kg. Besides, the Solubility entry in data set [9] (setting [10]) is “readily soluble”; in data set [9] (in water and n-hexane), “sparingly soluble”.

Consider `COC(=O)C1(C)Nc2c(O)cc3c(c2C1=O)C(CBr)CN3C(=O)c1cc2cc(OC)c(OC)c(OC)c2[nH]1` (centres unmarked) [DC-89B2], for which, in data set [1] (0.25 mg/kg, i.p. once 24 h after implantation), the “T/C (average tumor volume)” value amounted to 0.28. Further, the MIC in [2] was found to be 0.0033 µg/mL (≈ 0.00561 µM); in data set [3], 0.0033 µg/mL (≈ 0.00561 µM); in data set [4], 0.1 µg/mL (≈ 0.17 µM); in data set [5], 1.3 µg/mL (≈ 2.21 µM); in [6], 2.6 µg/mL (≈ 4.42 µM). Besides, the “Increased Life Span (T/C)” value in [7] (0.0781 mg/kg, i.p. once 24 h after implantation) was determined as 1.19. Also, the median lethal dose (LD50) in [8] is roughly 0.28 mg/kg. Moreover, the Solubility result in data set [9] (setting [10]) was “readily soluble”; in data set [9] (in water and n-hexane) it was “sparingly soluble”.

As to `CO[C@@]12[C@H](COC(N)=O)C3=C(C(=O)C(C)=C(N)C3=O)N1C[C@@H]1N[C@@H]12` [Mitomycin C, mitomycin C, reference compound], the “T/C (average tumor volume)” value in data set [1] (setting [11]) turned out to be 0.30. Besides, the “Increased Life Span (T/C)” value in data set [7] (setting [11]) stood at 1.66.

The values above are taken from patent US5138059A, “DC-89 compounds and process for their preparation” (priority 1988, dated 1992).
